Earlier results as cited in patent US20040115181A1, “Composition for transmucosal adminstration containing conenzyme q as the active ingredient” (priority 2001, published 2004).

System: rats
Conditions: continuously administered for 52 weeks, 1.2 g/kg/day, J. Agric. Food Chem., 1999, Vol. 47, P3756-3763

SMILES: COC1=C(OC)C(=O)C(C/C=C(\C)CC/C=C(\C)CC/C=C(\C)CC/C=C(\C)CC/C=C(\C)CC/C=C(\C)CC/C=C(\C)CC/C=C(\C)CC/C=C(\C)CCC=C(C)C)=C(C)C1=O [coenzyme Q10]
- Toxicity in safety test: no toxicity is observed
